Data published in article PMC10301922, “Anti-Oxidant, Anti-Mutagenic Activity and Safety Evaluation of Antrocin” (Toxics, 2023).
Values after ≈ are worked out from the molar mass of the structure shown. Values joined by “and” are separate entries in the source; they are usually repeats but may differ in a detail not shown here. Equal values may be shown once. “Also recorded” adds a separate entry of the source. Read-outs that look alike come from different tables or passages of the source.

Key:
[1] = test system: Salmonella typhimurium TA98
[2] = test system: five different strains of Salmonella typhimurium; experiment: Bacterial toxicity test prior to the Ames test; conditions: all tester strains
[3] = test system: Salmonella typhimurium TA98; experiment: Ames test (plate incorporation), TA98
[4] = MTT assay for cytotoxicity; type: cell-based, Chinese hamster; conditions: Chinese hamster, CHO-K1 cells, read-out: cell viabilities
CHO-K1 cells = experiment: MTT assay for cytotoxicity; type: cell-based, Chinese hamster; conditions: Cricetulus griseus, MTT, 24 h, read-out: half maximal inhibitory concentration (IC50)
Sprague Dawley rats [5] = experiment: 28-day oral toxicity test: clinical signs, mortality, overall result
Total polyphenol content = conditions: 10 mg/mL antrocin
Description: We added 40–50 μL of sample to a 96-well plate and made it up to 100 μL with ddH2O. For each sample, a parallel sample was prepared as a sample background control. Vanillic acid was used as a positive control. We added 50 μL of 50 mM vanillic acid solution per well to the desired wells and made it up to 100 μL with ddH2O. We adjusted the volume of all standard curves to 100 µL with ddH2O. We then added 20 μL PC (Phenolic Compounds) Probe to the standard curve and sample reaction wells, and 20 μL PC Assay Buffer to the sample background wells. For standard curve preparation, we added 0, 2, 4, 6, 8, and 10 μL of 1 mM catechin standards to clear 96-well plates to generate 0, 2, 4, 6, 8, and 10 nmol/well catechin standard, respectively. We adjusted the volume of all standard curves to 100 µL with ddH2O. […] The absorbance was measured at 480 nm.
We subtracted the 0 nmol standard OD480 value from all standard curve readings and drew a catechin standard curve. If the sample background well reads were significant, the sample background control reads were subtracted from their paired sample reads. […]
B stands for the amount of diazo chromophore, calculated from the standard curve (nmol of catechin); D stands for the sample dilution factor (for undiluted samples, D = 1); V stands for the volume of sample added to the well (in µL).

[6] = Solubility in 95% ethanol; type: physicochemical; conditions: organic solvent or mixture
Description: Optical pure antrocin, with a purity > 95%, was provided by Professor Zhen Yang at the School of Chemical Biology and Biotechnology, Peking University. […] A 50 mg/mL ethanol solution of antrocin was prepared as a stock solution, and was diluted before testing. All of the samples were stored at 4 °C.

Sprague Dawley rats [7] = experiment: 28-day oral toxicity test: absolute organ weight
[8] = test system: Salmonella typhimurium TA100
[9] = test system: Salmonella typhimurium TA1535; experiment: Antimutagenicity test, TA1535
[10] = TA98, with S9, mutagen 2-AA 25 μg/plate, antrocin 0.025 mg/plate
[11] = TA98, with S9, mutagen 2-AA 25 μg/plate, antrocin 0.05 mg/plate
[12] = TA98, with S9, mutagen 2-AA 25 μg/plate, antrocin […]
[13] = TA98, without S9, mutagen 4-NQO 2.5 μg/plate, antrocin 0.025 mg/plate
[14] = TA98, without S9, mutagen 4-NQO 2.5 μg/plate, antrocin 0.05 mg/plate
[15] = TA98, without S9, mutagen 4-NQO 2.5 μg/plate, antrocin […]
[16] = female rats, 7.5 mg/kg oral 28 d
[17] = female rats, 37.5 mg/kg oral 28 d
[18] = male rats, 37.5 mg/kg oral 28 d
[19] = TA1535, with S9, mutagen 2-AA 25 μg/plate, antrocin 0.025 mg/plate
[20] = TA1535, with S9, mutagen 2-AA 25 μg/plate, antrocin 0.05 mg/plate
[21] = TA1535, with S9, mutagen 2-AA 25 μg/plate, antrocin […]
[22] = TA1535, without S9, mutagen sodium azide 5 μg/plate, antrocin 0.025 mg/plate
[23] = TA1535, without S9, mutagen sodium azide 5 μg/plate, antrocin 0.05 mg/plate
[24] = TA1535, without S9, mutagen sodium azide 5 μg/plate, antrocin […]

## C=C1CC[C@H]2C(C)(C)CCC[C@@]23C(=O)OC[C@@H]13 [Antrocin, (-)-Antrocin]
[1]; [10]
  Inhibition (%) of mutagenicity: 18.17%
  Number of Revertant: 4959.0 ± 739.1 Colony/Plate
[1]; [11]
  Inhibition (%) of mutagenicity: 33.67%
  Number of Revertant: 4024.0 ± 251.1 Colony/Plate
[1]; [12]
  Inhibition (%) of mutagenicity: 6.21%
  Number of Revertant: 5680.3 ± 640.7 Colony/Plate
[1]; TA98, without S9, against direct mutagen 4-NQO
  antimutagenic agent strength: strong anti-mutagenic agent; also recorded: very strong anti-mutagenic effect
[1]; [13]
  Inhibition (%) of mutagenicity: 51.03%
  Number of Revertant: 67.7 ± 2.5 Colony/Plate
[1]; [14]
  Inhibition (%) of mutagenicity: 98.62%
  Number of Revertant: 21.7 ± 1.5 Colony/Plate
[1]; [15]
  Inhibition (%) of mutagenicity: 35.17%
  Number of Revertant: 83.0 ± 3.6 Colony/Plate
[2]
  maximum non-toxic concentration: 0.05 mg/plate
[3]; TA98, with S9, 0.003125 mg/plate
  Number of Revertant: 33.7 ± 1.2 Colony/Plate
[3]; TA98, with S9, 0.00625 mg/plate
  Number of Revertant: 32.0 ± 1.6 Colony/Plate
[3]; TA98, with S9, 0.025 mg/plate
  Number of Revertant: 34.3 ± 3.3 Colony/Plate
[3]; TA98, with S9, 0.05 mg/plate
  Number of Revertant: 36.0 ± 4.3 Colony/Plate
[3]; TA98, without S9, 0.00625 mg/plate
  Number of Revertant: 246.0 ± 16.4 Colony/Plate
[3]; TA98, without S9, 0.025 mg/plate
  Number of Revertant: 278.3 ± 4.5 Colony/Plate
[3]; TA98, without S9, 0.05 mg/plate
  Number of Revertant: 270.0 ± 11.2 Colony/Plate
[3]; preliminary tests, TA98, 100 μg/plate
  bacterial mutagenicity: no bacterial mutagenicity
[4]; 31.25 μg/mL
  viability at 24 h, 31.25 μg/mL: 81.3 ± 5%
[4]; 62.5 μg/mL
  viability at 24 h, 62.5 μg/mL: 62.9 ± 8.9%
[4]; 250 μg/mL
  viability at 24 h, 250 μg/mL: 24.8 ± 1.9%
[4]; 500 μg/mL
  viability at 24 h, 500 μg/mL: 22.1 ± 1.5%
CHO-K1 cells
  IC50: ~123 µg/mL (≈ 0.524 mM)
Sprague Dawley rats [5]; 7.5 or 37.5 mg/kg oral 28 d
  toxic effects according to hematology, serum chemistry, urine analysis, histopathological examinations: did not produce any toxic effects
Sprague Dawley rats [5]; 28-day oral toxicity test in rats
  highest dosage with no adverse effect: 37.5 mg/kg/day
Total polyphenol content
  Total Phenolic Contents (mM Catechin Equivalents): 0.016 ± 0.000 mM Catechin equivalents and 0.016 ± 0.000 ^1 mM Catechin equivalents
[6]
  solubility: ~133 mg/mL (≈ 568 mM)
Sprague Dawley rats [7]; female rats (ovary), 7.5 mg/kg oral 28 d
  Testis/Ovary: 0.07 ± 0.02 g
Sprague Dawley rats [7]; female rats (ovary), 37.5 mg/kg oral 28 d
  Testis/Ovary: 0.10 ± 0.01 g
Sprague Dawley rats [7]; [16]
  Adrenal: 0.05 ± 0.01 g
  Brain: 1.9 ± 0.1 g
  Heart: 0.9 ± 0.1 g
  Kidney: 1.8 ± 0.1 g
  Liver: 8.5 ± 0.7 g
  Spleen: 0.4 ± 0.1 g
  Thymus: 0.4 ± 0.1 g
Sprague Dawley rats [7]; [17]
  Adrenal: 0.05 ± 0.01 g
  Brain: 2.0 ± 0.1 g
  Heart: 1.0 ± 0.1 g
  Kidney: 1.7 ± 0.1 g
  Liver: 7.8 ± 0.5 g
  Spleen: 0.4 ± 0.0 g
  Thymus: 0.4 ± 0.1 g
Sprague Dawley rats [7]; male rats (testis), 7.5 mg/kg oral 28 d
  Testis/Ovary: 3.1 ± 0.2 g
Sprague Dawley rats [7]; male rats (testis), 37.5 mg/kg oral 28 d
  Testis/Ovary: 3.2 ± 0.2 g
Sprague Dawley rats [7]; male rats, 7.5 mg/kg oral 28 d
  Adrenal: 0.05 ± 0.01 g
  Brain: 2.1 ± 0.2 g
  Heart: 1.3 ± 0.2 g
  Kidney: 2.8 ± 0.4 g
  Liver: 12.2 ± 1.9 g
  Spleen: 0.6 ± 0.1 g
  Thymus: 0.6 ± 0.1 g
Sprague Dawley rats [7]; [18]
  Adrenal: 0.06 ± 0.00 g
  Brain: 2.0 ± 0.1 g
  Heart: 1.3 ± 0.2 g
  Kidney: 2.7 ± 0.2 g
  Liver: 11.1 ± 1.2 g
  Spleen: 0.6 ± 0.1 g
  Thymus: 0.4 ± 0.1 g
[8]; TA100, with S9, 0.003125 mg/plate
  Number of Revertant: 194.3 ± 5.4 Colony/Plate
[8]; TA100, with S9, 0.00625 mg/plate
  Number of Revertant: 185.0 ± 6.5 Colony/Plate
[8]; TA100, with S9, 0.025 mg/plate
  Number of Revertant: 197.0 ± 8.8 Colony/Plate
[8]; TA100, with S9, 0.05 mg/plate
  Number of Revertant: 195.3 ± 2.9 Colony/Plate
[8]; TA100, without S9, 0.003125 mg/plate
  Number of Revertant: 170.7 ± 1.2 Colony/Plate
[8]; TA100, without S9, 0.00625 mg/plate
  Number of Revertant: 169.3 ± 8.2 Colony/Plate
[8]; TA100, without S9, 0.025 mg/plate
  Number of Revertant: 181.7 ± 5.7 Colony/Plate
[8]; TA100, without S9, 0.05 mg/plate
  Number of Revertant: 166.7 ± 4.5 Colony/Plate
[8]; preliminary tests, TA100, 100 μg/plate
  bacterial mutagenicity: no bacterial mutagenicity
[9]; [19]
  Inhibition (%) of mutagenicity: 20.49%
  Number of Revertant: 217.3 ± 10.2 Colony/Plate
[9]; [20]
  Inhibition (%) of mutagenicity: 33.25%
  Number of Revertant: 184.3 ± 3.8 Colony/Plate
[9]; [21]
  Inhibition (%) of mutagenicity: 8.63%
  Number of Revertant: 248.0 ± 9.5 Colony/Plate
[9]; [22]
  Inhibition (%) of mutagenicity: 16.74%
  Number of Revertant: 1095.0 ± 28.0 Colony/Plate
[9]; [23]
  Inhibition (%) of mutagenicity: 25.80%
  Number of Revertant: 977.0 ± 18.1 Colony/Plate
[9]; [24]
  Inhibition (%) of mutagenicity: 4.40%
  Number of Revertant: 1255.7 ± 47.7 Colony/Plate
